Tests used:
Format in all cases: biochemical
[1] = target: T1, Steely1 C-terminal type III PKS domain (Dictyostelium discoideum, UniProt Q55E72); test: In vitro polyketide extension assay with [14-C]malonyl-CoA and CoA-linked starters, TLC/autoradiography; settings: heterologously expressed domain, radiolabeled malonyl-CoA extender
T1 construct: poly-histidine (pHIS-8 vector, thrombin-cleavable) (N); made in house; host or cells: E. coli BL21(DE3) or CodonPlus (Stratagene)
T1 sequence (Q55E72 2776-3147): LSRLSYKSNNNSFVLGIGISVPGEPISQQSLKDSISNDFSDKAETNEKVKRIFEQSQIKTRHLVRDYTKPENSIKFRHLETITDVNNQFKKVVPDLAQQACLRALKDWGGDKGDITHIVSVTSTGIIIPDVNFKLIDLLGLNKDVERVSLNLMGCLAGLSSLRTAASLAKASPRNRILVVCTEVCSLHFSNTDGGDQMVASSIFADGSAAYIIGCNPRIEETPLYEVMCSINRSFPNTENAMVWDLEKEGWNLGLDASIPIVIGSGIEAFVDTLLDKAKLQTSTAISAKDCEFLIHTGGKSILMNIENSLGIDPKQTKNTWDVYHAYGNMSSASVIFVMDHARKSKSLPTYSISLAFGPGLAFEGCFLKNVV
Method: (§1) These differences in in vitro starter specificity are consistent with the substantial divergence of these steely active site predicted by homology modeling.
(§2) Standard 100 μL in vitro assays of heterologously expressed Steely C-terminal domains using [14-C]malonyl-CoA and various CoA-linked starters were conducted, extracted with ethyl acetate, analyzed by reverse-phase TLC, and visualized by autoradiography as previously reported.

[2] = target: T2, Steely2 C-terminal type III PKS domain (Dictyostelium discoideum, UniProt Q54FI3); test: as above; settings: heterologously expressed domain, radiolabeled malonyl-CoA extender
T2 construct: poly-histidine (pHIS-8 vector, thrombin-cleavable) (N); made in house; host or cells: E. coli BL21(DE3) or CodonPlus (Stratagene)
T2 sequence (Q54FI3 2595-2968): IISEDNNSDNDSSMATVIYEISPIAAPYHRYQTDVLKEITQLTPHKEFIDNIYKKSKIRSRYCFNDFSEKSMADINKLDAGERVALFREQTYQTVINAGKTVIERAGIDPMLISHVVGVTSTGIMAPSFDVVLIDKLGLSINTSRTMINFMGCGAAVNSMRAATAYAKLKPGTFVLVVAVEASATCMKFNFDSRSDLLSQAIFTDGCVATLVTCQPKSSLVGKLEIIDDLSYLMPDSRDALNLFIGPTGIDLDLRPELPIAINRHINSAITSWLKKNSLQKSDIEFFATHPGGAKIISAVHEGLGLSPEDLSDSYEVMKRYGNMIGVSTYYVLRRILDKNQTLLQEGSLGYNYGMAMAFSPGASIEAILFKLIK
Method: as §1, §2

[3] = target: T3, Steely1 type III PKS domain (Dictyostelium discoideum, UniProt Q55E72); test: HPLC-MS-MS analysis of in vitro assays with unlabeled malonyl-CoA; settings: overnight, Bis-Tris Propane pH 7.0
T3 construct: poly-histidine (pHIS-8 vector, thrombin-cleavable) (N); made in house; host or cells: E. coli BL21(DE3) or CodonPlus (Stratagene)
T3 sequence (Q55E72 2776-3147): T1 sequence (Q55E72 2776-3147)
Method: (§3) The related D. discoideum DIF-2 acylphloroglucinol scaffold seems to be derived from a pentanoyl intermediate. Therefore, in vitro assays of each steely C-terminal domain were also primed with butanoyl-CoA (12), as pentanoyl-CoA is not commercially available.
(§4) For HPLC-MS-MS analyses 25 μl injections of similarly prepared overnight reactions (but without organic extraction) buffered with 100 mM Bis-Tris Propane (pH 7.0), using unlabeled malonyl-CoA, were used. LC-MS-MS analyses were carried out on an Agilent 1100 HPLC with an integrated Agilent LC/MSD Trap XCT ion trap mass spectrometer, using a reversed-phase C18 column (4.6×150 mm; Gemini) maintained at 30° C. A gradient mobile phase ramped from 5% to 100% acetonitrile in water (with each solvent containing 0.1% v/v formic acid) between minutes 3 and 13 of a 25-min run using a flow rate of 0.5 ml min^−1 and a 0.1 ml min^−1 post column injection of 20 mM ammonium acetate in water. UV absorbance was monitored at 286 nm.
(§5) PCP was identified by direct HPLC-MS-MS comparison with an authentic synthetic standard, kindly provided by S. Horinouchi and N. Funa. Other hexanoyl- and butanoyl-primed enzymatic products were identified by comparing their relative HPLC elution times and negative MS-MS fragmentation patterns with previously published LC-MS-MS analyses of authentic standards (Funa et al. (2002) “Properties and substrate specificity of RppA, a chalcone synthase-related polyketide synthase in Streptomyces griseus” J Biol Chem 277:4628-4635). EICs with parent ion masses of plausible polyketide products were used to detect trace amounts of minor enzymatic products, but only triketide and tetraketide products were observed.

[4] = target: T4, Steely2 type III PKS domain (Dictyostelium discoideum, UniProt Q54FI3); test: as above; settings: overnight, Bis-Tris Propane pH 7.0
T4 construct: poly-histidine (pHIS-8 vector, thrombin-cleavable) (N); made in house; host or cells: E. coli BL21(DE3) or CodonPlus (Stratagene)
T4 sequence (Q54FI3 2595-2968): T2 sequence (Q54FI3 2595-2968)
Method: as §3, §4, §5

Q: Which “polyketide extension activity with the substance as starter” value (“polyketide extension activity” below) [1] does the source give for `CC(C)CC(=O)SCCNC(=O)CCNC(=O)[C@H](O)C(C)(C)COP(=O)(O)OP(=O)(O)OC[C@H]1O[C@@H](n2cnc3c(N)ncnc32)[C@H](O)[C@@H]1OP(=O)(O)O` [isovaleryl-CoA] here?
A: not Steely1 would accept

Q: And the “polyketide extension activity” value [2]?
A: would accept

Q: What does the source list for `CCCC(=O)SCCNC(=O)CCNC(=O)[C@H](O)C(C)(C)COP(=O)(O)OP(=O)(O)OC[C@H]1O[C@@H](n2cnc3c(N)ncnc32)[C@H](O)[C@@H]1OP(=O)(O)O` [butanoyl-CoA]?
A: enzymatic products of starter-primed assay [3]: no effect on the cyclization fate; enzymatic products of starter-primed assay [4]: no effect on the cyclization fate

Q: How did the “polyketide extension activity” value [1] turn out when `CCCCCCCC(=O)SCCNC(=O)CCNC(=O)[C@H](O)C(C)(C)COP(=O)(O)OP(=O)(O)OC[C@H]1O[C@@H](n2cnc3c(N)ncnc32)[C@H](O)[C@@H]1OP(=O)(O)O` [octanoyl-CoA] was run?
A: accepted

Q: And the “polyketide extension activity” value [2]?
A: only Steely1 accepted

Q: `CC(C)(COP(=O)(O)OP(=O)(O)OC[C@H]1O[C@@H](n2cnc3c(N)ncnc32)[C@H](O)[C@@H]1OP(=O)(O)O)[C@@H](O)C(=O)NCCC(=O)NCCSC(=O)/C=C/c1ccc(O)cc1` [p-coumaroyl-CoA] was tested. Which “polyketide extension activity” value [1] did it give?
A: Neither enzyme showed significant polyketide extension activity

Q: What about the “polyketide extension activity” value [2] of the same compound?
A: Neither enzyme showed significant polyketide extension activity

Q: How did the “enzymatic products of starter-primed assay” value [3] turn out when `CCCCCC(=O)SCCNC(=O)CCNC(=O)[C@H](O)C(C)(C)COP(=O)(O)OP(=O)(O)OC[C@H]1O[C@@H](n2cnc3c(N)ncnc32)[C@H](O)[C@@H]1OP(=O)(O)O` [hexanoyl-CoA] was run?
A: produced only triketide (10) and tetraketide (11) lactonization-derived pyrones

Q: What about the “enzymatic products of starter-primed assay” value [4] of the same compound?
A: catalyzes three rounds of polyketide chain extension and the final CHS-like intramolecular C6 to C1 Claisen condensation

Q: What about the “polyketide extension activity” value [1] of the same compound?
A: catalyze iterative polyketide extension

Q: And the “polyketide extension activity” value [2]?
A: catalyze iterative polyketide extension

Q: Which results are given for `CC(C)(COP(=O)(O)OP(=O)(O)OC[C@H]1O[C@@H](n2cnc3c(N)ncnc32)[C@H](O)[C@@H]1OP(=O)(O)O)[C@@H](O)C(=O)NCCC(=O)NCCSC(=O)CC(=O)O` [malonyl-CoA]?
A: polyketide extension activity with the substance as starter [1]: Neither enzyme showed significant polyketide extension activity; polyketide extension activity with the substance as starter [2]: Neither enzyme showed significant polyketide extension activity

Q: How did the “polyketide extension activity” value [1] turn out when `CC(=O)SCCNC(=O)CCNC(=O)[C@H](O)C(C)(C)COP(=O)(O)OP(=O)(O)OC[C@H]1O[C@@H](n2cnc3c(N)ncnc32)[C@H](O)[C@@H]1OP(=O)(O)O` [acetyl-CoA] was run?
A: Neither enzyme showed significant polyketide extension activity

Q: And the “polyketide extension activity” value [2]?
A: Neither enzyme showed significant polyketide extension activity
